Columns and labels:
Test in all cases: Kinome-wide inhibition profiling
Assay type in all cases: biochemical
MLK4 = target: T1, MLK4 (Homo sapiens, UniProt Q5TCX8)
T1 construct: purchased Reaction Biology Corp
Description: (§1) In vitro CDK12/cyclinK assays for all compounds and in vitro kinome-wide inhibition profiling of 30d at 10 μM were performed by a CRO company (Reaction Biology Corp., San Diego, CA, USA).

TSSK6 = target: T2, TSSK6 (Homo sapiens, UniProt Q9BXA6)
T2 construct: purchased Reaction Biology Corp
Description: as §1

ERBB2 = target: T3, ERBB2 (Homo sapiens, UniProt P04626)
T3 construct: purchased Reaction Biology Corp
Description: as §1

AXL = target: T4, AXL (Homo sapiens, UniProt P30530)
T4 construct: purchased Reaction Biology Corp
Description: as §1

VRK2 = target: T5, VRK2 (Homo sapiens, UniProt Q86Y07)
T5 construct: purchased Reaction Biology Corp
Description: as §1

MAPKAPK5 = target: T6, MAPKAPK5 (Homo sapiens, UniProt Q8IW41)
T6 construct: purchased Reaction Biology Corp
T6 sequence (Q8IW41 whole entry): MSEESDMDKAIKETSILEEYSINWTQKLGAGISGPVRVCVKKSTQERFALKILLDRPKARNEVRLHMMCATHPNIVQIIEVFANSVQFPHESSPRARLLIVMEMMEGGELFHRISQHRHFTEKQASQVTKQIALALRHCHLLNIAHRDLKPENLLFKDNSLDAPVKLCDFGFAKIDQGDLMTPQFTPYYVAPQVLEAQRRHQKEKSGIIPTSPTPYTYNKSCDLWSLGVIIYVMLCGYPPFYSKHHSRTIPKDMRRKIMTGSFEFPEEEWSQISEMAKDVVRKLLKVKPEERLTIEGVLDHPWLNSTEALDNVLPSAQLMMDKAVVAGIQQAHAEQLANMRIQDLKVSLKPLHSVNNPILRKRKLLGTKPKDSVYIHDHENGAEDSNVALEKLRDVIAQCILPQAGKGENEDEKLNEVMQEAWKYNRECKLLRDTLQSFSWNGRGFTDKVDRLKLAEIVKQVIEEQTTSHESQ
Description: as §1

STK39 = target: T7, STK39 (Homo sapiens, UniProt Q9UEW8)
T7 construct: purchased Reaction Biology Corp
Description: as §1

FER = target: T8, FER (Homo sapiens, UniProt P16591)
T8 construct: purchased Reaction Biology Corp
Description: as §1

CSNK1D = target: T9, CSNK1D (Homo sapiens, UniProt P48730)
T9 construct: purchased Reaction Biology Corp
Description: as §1

TAK1 = target: T10, TAK1 (Homo sapiens, UniProt O43318)
T10 construct: purchased Reaction Biology Corp
Description: as §1

HCK = target: T11, HCK (Homo sapiens, UniProt P08631)
T11 construct: purchased Reaction Biology Corp
Description: as §1

MARK1 = target: T12, MARK1 (Homo sapiens, UniProt Q9P0L2)
T12 construct: purchased Reaction Biology Corp
Description: as §1

SLK = target: T13, SLK (Homo sapiens, UniProt Q9H2G2)
T13 construct: purchased Reaction Biology Corp
Description: as §1

PKAC-gamma = target: T14, PKAC-gamma (Homo sapiens, UniProt P22612)
T14 construct: purchased Reaction Biology Corp
T14 sequence (P22612 whole entry): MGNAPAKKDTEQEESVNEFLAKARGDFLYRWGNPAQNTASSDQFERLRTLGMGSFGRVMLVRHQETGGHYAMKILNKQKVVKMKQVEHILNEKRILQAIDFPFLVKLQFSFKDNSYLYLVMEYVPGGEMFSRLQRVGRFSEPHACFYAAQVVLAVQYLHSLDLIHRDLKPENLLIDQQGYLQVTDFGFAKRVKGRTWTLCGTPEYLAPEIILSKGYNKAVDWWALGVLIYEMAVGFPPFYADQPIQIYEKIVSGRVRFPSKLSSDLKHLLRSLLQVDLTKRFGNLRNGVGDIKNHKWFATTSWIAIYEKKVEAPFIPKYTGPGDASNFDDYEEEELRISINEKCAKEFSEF
Description: as §1

STK33 = target: T15, STK33 (Homo sapiens, UniProt Q9BYT3)
T15 construct: purchased Reaction Biology Corp
Description: as §1

EPHA6 = target: T16, EPHA6 (Homo sapiens, UniProt Q9UF33)
T16 construct: purchased Reaction Biology Corp
T16 sequence (Q9UF33 23-1036): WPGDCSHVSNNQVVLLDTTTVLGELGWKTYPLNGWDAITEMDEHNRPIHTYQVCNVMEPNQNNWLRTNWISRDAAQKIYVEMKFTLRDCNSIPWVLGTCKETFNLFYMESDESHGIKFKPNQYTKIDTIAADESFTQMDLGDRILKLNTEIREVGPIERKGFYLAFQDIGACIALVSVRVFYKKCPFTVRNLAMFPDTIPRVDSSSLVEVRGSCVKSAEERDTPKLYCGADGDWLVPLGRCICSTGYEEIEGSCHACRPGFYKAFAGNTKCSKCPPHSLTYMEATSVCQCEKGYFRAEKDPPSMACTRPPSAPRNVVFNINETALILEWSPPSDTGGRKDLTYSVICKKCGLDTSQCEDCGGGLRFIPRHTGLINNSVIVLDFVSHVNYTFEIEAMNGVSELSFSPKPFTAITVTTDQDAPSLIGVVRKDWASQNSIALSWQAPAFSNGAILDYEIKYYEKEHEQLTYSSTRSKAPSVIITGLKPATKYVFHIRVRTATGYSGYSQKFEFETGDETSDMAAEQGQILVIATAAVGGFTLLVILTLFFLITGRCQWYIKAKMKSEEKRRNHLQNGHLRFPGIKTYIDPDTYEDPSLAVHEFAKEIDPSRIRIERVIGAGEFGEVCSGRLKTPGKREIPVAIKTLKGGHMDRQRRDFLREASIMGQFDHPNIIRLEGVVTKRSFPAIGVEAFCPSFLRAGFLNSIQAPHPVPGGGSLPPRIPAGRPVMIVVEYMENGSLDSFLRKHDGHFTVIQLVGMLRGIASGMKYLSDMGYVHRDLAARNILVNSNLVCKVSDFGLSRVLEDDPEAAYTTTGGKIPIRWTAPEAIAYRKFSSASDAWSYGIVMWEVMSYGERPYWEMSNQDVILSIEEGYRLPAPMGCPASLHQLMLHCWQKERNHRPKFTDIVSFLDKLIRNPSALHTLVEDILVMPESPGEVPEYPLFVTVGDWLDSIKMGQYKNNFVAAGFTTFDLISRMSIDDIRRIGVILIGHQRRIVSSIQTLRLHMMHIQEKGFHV
Description: as §1

HIPK2 = target: T17, HIPK2 (Homo sapiens, UniProt Q9H2X6)
T17 construct: purchased Reaction Biology Corp
Description: as §1

MYLK2 = target: T18, MYLK2 (Homo sapiens, UniProt Q9H1R3)
T18 construct: purchased Reaction Biology Corp
Description: as §1

ACK1 = target: T19, ACK1 (Homo sapiens, UniProt Q07912)
T19 construct: purchased Reaction Biology Corp
Description: as §1

TESK2 = target: T20, TESK2 (Homo sapiens, UniProt Q96S53)
T20 construct: purchased Reaction Biology Corp
Description: as §1

IRAK1 = target: T21, IRAK1 (Homo sapiens, UniProt P51617)
T21 construct: purchased Reaction Biology Corp
Description: as §1

NEK3 = target: T22, NEK3 (Homo sapiens, UniProt P51956)
T22 construct: purchased Reaction Biology Corp
Description: as §1

DAPK1 = target: T23, DAPK1 (Homo sapiens, UniProt P53355)
T23 construct: purchased Reaction Biology Corp
Description: as §1

PKCb1 = target: T24, PKCb1 (Homo sapiens, UniProt P05771)
T24 construct: purchased Reaction Biology Corp
Description: as §1

ABL1 = target: T25, ABL1 (Homo sapiens, UniProt P00519)
T25 construct: purchased Reaction Biology Corp
Description: as §1

SRPK1 = target: T26, SRPK1 (Homo sapiens, UniProt Q96SB4)
T26 construct: purchased Reaction Biology Corp
Description: as §1

TAOK2 = target: T27, TAOK2 (Homo sapiens, UniProt Q9UL54)
T27 construct: purchased Reaction Biology Corp
Description: as §1

CAMK2d = target: T28, CAMK2d (Homo sapiens, UniProt Q13557)
T28 construct: purchased Reaction Biology Corp
Description: as §1

RSK2 = target: T29, RSK2 (Homo sapiens, UniProt P51812)
T29 construct: purchased Reaction Biology Corp
Description: as §1

PASK = target: T30, PASK (Homo sapiens, UniProt Q96RG2)
T30 construct: purchased Reaction Biology Corp
Description: as §1

FGR = target: T31, FGR (Homo sapiens, UniProt P09769)
T31 construct: purchased Reaction Biology Corp
Description: as §1

JAK3 = target: T32, JAK3 (Homo sapiens, UniProt P52333)
T32 construct: purchased Reaction Biology Corp
Description: as §1

LATS1 = target: T33, LATS1 (Homo sapiens, UniProt O95835)
T33 construct: purchased Reaction Biology Corp
Description: as §1

YANK2 = target: T34, YANK2 (Homo sapiens, UniProt Q9NY57)
T34 construct: purchased Reaction Biology Corp
Description: as §1

CDK9/cyclinT1 = target: T35, CDK9/cyclinT1 (Homo sapiens, UniProt P50750)
T35 construct: purchased Reaction Biology Corp
T35 sequence (P50750 whole entry): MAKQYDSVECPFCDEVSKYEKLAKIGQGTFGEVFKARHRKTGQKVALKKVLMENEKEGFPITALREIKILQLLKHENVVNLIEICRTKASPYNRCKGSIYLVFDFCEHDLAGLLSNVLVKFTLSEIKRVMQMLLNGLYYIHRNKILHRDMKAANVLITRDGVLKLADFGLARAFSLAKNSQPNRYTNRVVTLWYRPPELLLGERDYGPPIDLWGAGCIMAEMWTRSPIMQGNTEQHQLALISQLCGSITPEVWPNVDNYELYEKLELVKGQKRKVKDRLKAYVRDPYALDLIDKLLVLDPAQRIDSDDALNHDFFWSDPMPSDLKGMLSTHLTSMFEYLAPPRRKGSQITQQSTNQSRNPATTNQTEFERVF
T35 sequence (O60563 whole entry partner): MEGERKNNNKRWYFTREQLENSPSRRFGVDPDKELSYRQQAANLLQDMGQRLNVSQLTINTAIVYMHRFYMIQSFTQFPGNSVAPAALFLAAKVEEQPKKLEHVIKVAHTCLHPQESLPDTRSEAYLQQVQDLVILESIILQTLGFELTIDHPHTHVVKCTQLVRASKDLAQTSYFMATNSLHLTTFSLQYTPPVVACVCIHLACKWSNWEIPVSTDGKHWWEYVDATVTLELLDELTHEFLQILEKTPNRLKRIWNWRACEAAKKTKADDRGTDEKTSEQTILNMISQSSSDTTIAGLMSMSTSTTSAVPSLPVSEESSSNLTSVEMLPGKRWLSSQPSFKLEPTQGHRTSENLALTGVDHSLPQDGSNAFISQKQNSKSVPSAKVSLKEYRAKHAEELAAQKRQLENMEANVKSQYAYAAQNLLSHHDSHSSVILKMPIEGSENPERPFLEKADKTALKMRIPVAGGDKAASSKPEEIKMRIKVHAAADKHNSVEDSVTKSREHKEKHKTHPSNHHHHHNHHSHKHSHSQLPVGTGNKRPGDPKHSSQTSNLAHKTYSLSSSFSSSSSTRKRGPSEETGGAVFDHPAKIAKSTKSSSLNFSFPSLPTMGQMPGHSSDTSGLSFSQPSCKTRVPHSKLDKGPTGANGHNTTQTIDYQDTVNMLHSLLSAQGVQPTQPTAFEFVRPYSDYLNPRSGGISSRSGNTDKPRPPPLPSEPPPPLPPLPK
Description: as §1

HIPK3 = target: T36, HIPK3 (Homo sapiens, UniProt Q9H422)
T36 construct: purchased Reaction Biology Corp
Description: as §1

FYN = target: T37, FYN (Homo sapiens, UniProt P06241)
T37 construct: purchased Reaction Biology Corp
Description: as §1

EPHB2 = target: T38, EPHB2 (Homo sapiens, UniProt P29323)
T38 construct: purchased Reaction Biology Corp
T38 sequence (P29323 19-1055): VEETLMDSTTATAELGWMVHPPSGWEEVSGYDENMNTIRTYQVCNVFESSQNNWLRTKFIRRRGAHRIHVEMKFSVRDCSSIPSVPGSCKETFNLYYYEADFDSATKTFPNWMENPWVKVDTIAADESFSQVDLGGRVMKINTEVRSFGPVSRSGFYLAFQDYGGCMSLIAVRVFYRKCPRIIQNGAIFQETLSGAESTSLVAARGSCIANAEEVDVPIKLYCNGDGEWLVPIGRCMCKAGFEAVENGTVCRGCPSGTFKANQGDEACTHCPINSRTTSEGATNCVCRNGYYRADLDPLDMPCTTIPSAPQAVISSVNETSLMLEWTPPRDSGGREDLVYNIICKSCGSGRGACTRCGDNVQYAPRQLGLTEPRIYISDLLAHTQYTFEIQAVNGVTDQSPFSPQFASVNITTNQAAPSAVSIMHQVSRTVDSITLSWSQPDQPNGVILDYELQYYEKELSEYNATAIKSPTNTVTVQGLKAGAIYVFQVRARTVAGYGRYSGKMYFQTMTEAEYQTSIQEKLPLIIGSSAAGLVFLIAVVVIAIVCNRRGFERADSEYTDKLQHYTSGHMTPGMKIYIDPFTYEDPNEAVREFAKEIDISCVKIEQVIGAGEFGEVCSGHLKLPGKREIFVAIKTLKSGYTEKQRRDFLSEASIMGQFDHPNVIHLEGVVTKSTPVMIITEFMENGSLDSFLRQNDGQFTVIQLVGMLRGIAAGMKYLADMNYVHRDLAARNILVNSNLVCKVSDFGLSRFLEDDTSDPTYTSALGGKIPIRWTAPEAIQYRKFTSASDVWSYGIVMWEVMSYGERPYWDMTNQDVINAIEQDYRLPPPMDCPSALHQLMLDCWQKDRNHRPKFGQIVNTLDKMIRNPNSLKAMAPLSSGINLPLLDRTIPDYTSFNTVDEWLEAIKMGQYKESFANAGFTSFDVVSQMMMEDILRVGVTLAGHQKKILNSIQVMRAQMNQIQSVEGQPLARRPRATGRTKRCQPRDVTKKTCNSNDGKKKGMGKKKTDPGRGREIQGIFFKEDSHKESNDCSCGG
Description: as §1

STK16 = target: T39, STK16 (Homo sapiens, UniProt O75716)
T39 construct: purchased Reaction Biology Corp
Description: as §1

PCTK3 = target: T40, PCTK3 (Homo sapiens, UniProt Q07002)
T40 construct: purchased Reaction Biology Corp
T40 sequence (Q07002 whole entry): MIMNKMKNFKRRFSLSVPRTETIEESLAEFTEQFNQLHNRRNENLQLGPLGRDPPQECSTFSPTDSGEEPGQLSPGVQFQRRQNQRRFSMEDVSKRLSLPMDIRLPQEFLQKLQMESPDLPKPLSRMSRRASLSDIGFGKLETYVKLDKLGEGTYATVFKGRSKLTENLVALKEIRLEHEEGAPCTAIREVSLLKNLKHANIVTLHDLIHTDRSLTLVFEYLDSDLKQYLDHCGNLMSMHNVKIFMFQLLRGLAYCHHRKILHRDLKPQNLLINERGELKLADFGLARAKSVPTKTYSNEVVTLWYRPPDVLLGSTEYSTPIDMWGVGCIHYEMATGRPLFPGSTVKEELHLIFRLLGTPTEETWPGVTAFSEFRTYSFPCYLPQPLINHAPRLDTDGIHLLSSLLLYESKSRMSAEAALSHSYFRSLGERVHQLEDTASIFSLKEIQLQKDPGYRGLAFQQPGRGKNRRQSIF
T40 sequence (Q8ND76 whole entry partner): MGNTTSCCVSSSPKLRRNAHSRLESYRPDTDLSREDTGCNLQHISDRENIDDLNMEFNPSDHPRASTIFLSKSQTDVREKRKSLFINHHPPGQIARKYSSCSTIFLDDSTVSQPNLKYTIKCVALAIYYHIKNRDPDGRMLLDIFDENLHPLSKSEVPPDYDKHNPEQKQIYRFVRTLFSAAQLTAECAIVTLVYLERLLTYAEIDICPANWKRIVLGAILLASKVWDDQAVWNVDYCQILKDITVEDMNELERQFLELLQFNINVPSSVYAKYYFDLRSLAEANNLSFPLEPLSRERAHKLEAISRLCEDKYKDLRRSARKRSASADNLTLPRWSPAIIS
Description: as §1

CSNK1A1 = target: T41, CSNK1A1 (Homo sapiens, UniProt P48729)
T41 construct: purchased Reaction Biology Corp
Description: as §1

PRKCE = target: T42, PRKCE (Homo sapiens, UniProt Q02156)
T42 construct: purchased Reaction Biology Corp
Description: as §1

MRCKa = target: T43, MRCKa (Homo sapiens, UniProt Q5VT25)
T43 construct: purchased Reaction Biology Corp
Description: as §1

In the case of CCn1cnc2c(NCc3ccc(-c4ccccn4)nc3)nc(-c3ccc(N)nc3)nc21 [Compound 30d, N-([2,2′-Bipyridin]-5-ylmethyl)-2-(6-aminopyridin-3-yl)-9-ethyl-9H-purin-6-amine], the remaining activity at 10 µM (MLK4) was 114%, the remaining activity at 10 µM (TSSK6) was 86.9% and the remaining activity at 10 µM (ERBB2) was 74.2%. The remaining activity at 10 µM (AXL) was 44.2%, the remaining activity at 10 µM (VRK2) was 96.6% and the remaining activity at 10 µM (MAPKAPK5) was 103%. It also gave a remaining activity at 10 µM (STK39) of 29.6%, a remaining activity at 10 µM (FER) of 52.3% and a remaining activity at 10 µM (CSNK1D) of 10.2%. For the same compound, the remaining activity at 10 µM (TAK1) was 98.2%, the remaining activity at 10 µM (HCK) was 46.5% and the remaining activity at 10 µM (MARK1) was 81.5%. For the same compound, the remaining activity at 10 µM (SLK) was 69.5%, the remaining activity at 10 µM (PKAC-gamma) was 88.4% and the remaining activity at 10 µM (STK33) was 33.5%. The inhibition at 10 µM (EPHA6) was > 95%, the remaining activity at 10 µM (EPHA6) was 3% and the remaining activity at 10 µM (HIPK2) was 81.3%. The remaining activity at 10 µM (MYLK2) was 60%, the remaining activity at 10 µM (ACK1) was 13.7% and the remaining activity at 10 µM (TESK2) was 83.7%. The remaining activity at 10 µM (IRAK1) was 79%, the remaining activity at 10 µM (NEK3) was 86.6% and the remaining activity at 10 µM (DAPK1) was 99.7%. The remaining activity at 10 µM (PKCb1) was 89.9%, the remaining activity at 10 µM (ABL1) was 61.2% and the remaining activity at 10 µM (SRPK1) was 54.3%. The remaining activity at 10 µM (TAOK2) was 23.8%, the remaining activity at 10 µM (CAMK2d) was 61.7% and the remaining activity at 10 µM (RSK2) was 69.4%. The remaining activity at 10 µM (PASK) was 96.3%, the remaining activity at 10 µM (FGR) was 54.6% and the remaining activity at 10 µM (JAK3) was 99.7%. The remaining activity at 10 µM (LATS1) was 85%, the remaining activity at 10 µM (YANK2) was 57.6% and the inhibition at 10 µM (CDK9/cyclinT1) was > 95%. It also gave a remaining activity at 10 µM (CDK9/cyclinT1) of 0.8%, a remaining activity at 10 µM (HIPK3) of 94.1% and a remaining activity at 10 µM (FYN) of 81%. For the same compound, the inhibition at 10 µM (EPHB2) was > 95%, the remaining activity at 10 µM (EPHB2) was 2.5% and the remaining activity at 10 µM (STK16) was 35.9%. The inhibition at 10 µM (PCTK3; CDK18) was > 95%, the remaining activity at 10 µM (PCTK3; PCTK3 (listed as CDK18 in Figure 6)) was 2.5% and the remaining activity at 10 µM (CSNK1A1) was 26.5%. The remaining activity at 10 µM (PRKCE) was 94.1% and the remaining activity at 10 µM (MRCKa) was 96.6%.

Reference: publication PMC9506414, “Novel 2,6,9-Trisubstituted Purines as Potent CDK Inhibitors Alleviating Trastuzumab-Resistance of HER2-Positive Breast Cancers” (Pharmaceuticals, 2022)
